Laboratory results reported in patent US20140243414A1, “PHARMACEUTICAL COMPOSITIONS OF CETP INHIBITORS” (Japan Tobacco Inc., priority 2003, published 2014).
Like-named read-outs stand apart in the source and are kept apart here.

Columns and labels:
CETP [1] = biological target: T1, CETP (Homo sapiens, UniProt P11597); experiment: Food effect on CETP activity, 900 mg Compound I, Caucasian males (Example 6); format: in vivo; conditions: for change in vivo at 900 mg: read-out: Percent change from pre-dose in CETP activity (mean)
T1 construct: from tissue; host or cells: blood / plasma of human subjects dosed orally with Compound I
T1 sequence (P11597 18-493): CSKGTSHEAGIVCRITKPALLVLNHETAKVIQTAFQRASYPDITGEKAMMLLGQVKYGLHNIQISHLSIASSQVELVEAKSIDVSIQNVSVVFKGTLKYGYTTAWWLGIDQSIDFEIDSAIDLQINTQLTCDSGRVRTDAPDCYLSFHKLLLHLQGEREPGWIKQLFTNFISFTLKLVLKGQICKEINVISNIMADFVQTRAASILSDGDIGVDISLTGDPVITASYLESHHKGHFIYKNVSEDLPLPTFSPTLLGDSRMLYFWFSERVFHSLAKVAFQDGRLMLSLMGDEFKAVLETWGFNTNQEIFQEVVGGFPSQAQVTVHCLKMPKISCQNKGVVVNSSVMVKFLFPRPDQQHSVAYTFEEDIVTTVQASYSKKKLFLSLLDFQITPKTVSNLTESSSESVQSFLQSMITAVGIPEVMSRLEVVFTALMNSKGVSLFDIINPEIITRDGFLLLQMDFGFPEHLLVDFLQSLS
Source text: Administration, dosing, and sampling schedules were substantially similar to those described in Example 1.
The procedure for determining CETP activity is described in Example 5.
The mean changes from baseline (pre-dose) in CETP activity over time are set out in the plot of FIG. 3.

CETP [2] = biological target: T1, CETP; experiment: Food effect on relative CETP activity, 600 mg Compound I, Japanese males (Example 8); format: in vivo
Protocol: Administration, dosing, and sampling schedules were commensurate with those described in Examples 1 and 6. […] Patients were administered two tablets of 300 mg each. The tablets were prepared as described in Example 1.
Relative CETP activities (calculated as a percentage of baseline CETP activity) and standard deviations (SD) were measured, and the resulting data is summarized in Table 9.

TC, HDL-C, LDL-C = experiment: Lipid levels after 4 weeks daily treatment, healthy volunteers (Example 9); format: in vivo, human; conditions: for Decrease in TC/HDL-C ratio relative to baseline / Increase in HDL-C levels relative to baseline: 4 weeks; for Absolute change in HDL-C / Absolute change in TC / Absolute change in TC/HDL-C ratio / Absolute change in LDL-C: 4 weeks treatment, mean ± SD; for Absolute change in LDL-C: LDL-C by Friedewald formula
Protocol: (§1) Each patient took three tablets after breakfast each day for 4 weeks. Patients either took three placebo tablets (placebo); one 300 mg tablet and two placebo tablets (low dose); two 300 mg tablets and one placebo tablet (medium dose); or three 300 mg tablets (high dose). Tablet preparation was as described as in Example 1.
(§2) The testing period consisted of (a) a run-in period of 4 weeks, followed by (b) 4 weeks of treatment, and (c) 4 weeks of monitoring. Blood samples were drawn after an overnight fast. […] HDL-C was determined with a heparin MnCl2 precipitation reagent and LDL-C was calculated by the Friedewald formula (see, de Grooth et al., supra). CETP activity was measured as described in Example 5.
(§3) Table 11 describes the absolute changes in the assayed properties after 4 weeks of treatment.

Solubility in water = format: physicochemical
CETP [3] = biological target: T1, CETP; experiment: CETP activity after 4 weeks daily treatment, healthy volunteers (Example 9); format: in vivo; conditions: for Absolute change in CETP activity: 4 weeks treatment, mean ± SD; for Decrease in CETP activity relative to baseline: 4 weeks
Protocol: as §1, §2, §3

[4] = Plasma pharmacokinetics of the active form of Compound I, single oral doses after standard breakfast, Japanese males (Example 3); format: in vivo, human; conditions: Examples 1-4
Protocol: Administration, dosing, and sampling schedules were commensurate with those described in Example 1. The tablets were prepared as described in Example 1.

For `CCC(CC)CC1(C(=O)Nc2ccccc2SC(=O)C(C)C)CCCCC1` [Compound I, S-[2-([[1-(2-ethylbutyl)cyclohexyl]carbonyl]amino)phenyl]2-methylpropanethioate], the change in vivo at 900 mg (CETP [1]; 1 h, fasted, 1 h) was 1%, the change in vivo at 900 mg (CETP [1]; 1 h, fed, 1 h) was -1% and the change in vivo at 900 mg (CETP [1]; 2 h, fasted, 2 h) was 2%. The change in vivo at 900 mg (CETP [1]; 2 h, fed, 2 h) was -16%, the change in vivo at 900 mg (CETP [1]; 4 h, fasted, 4 h) was -4% and the change in vivo at 900 mg (CETP [1]; 4 h, fed, 4 h) was -44%. The change in vivo at 900 mg (CETP [1]; 6 h, fasted, 6 h) was -10%, the change in vivo at 900 mg (CETP [1]; 6 h, fed, 6 h) was -59% and the change in vivo at 900 mg (CETP [1]; 8 h, fasted, 8 h) was -15%. It also gave a change in vivo at 900 mg (CETP [1]; 8 h, fed, 8 h) of -58%, a change in vivo at 900 mg (CETP [1]; 24 h, fasted, 24 h) of -10% and a change in vivo at 900 mg (CETP [1]; 24 h, fed, 24 h) of -34%. The “CETP activity, Post-study (all subjects)” value (CETP [1]; all subjects (fed and fasted periods), post-study) was 96, the “CETP activity relative to pre-dose” value (CETP [2]; fasted, 1 h) was 102.1% and the “CETP activity relative to pre-dose” value (CETP [2]; fasted, 2 h) was 99.6%. The “CETP activity relative to pre-dose” value (CETP [2]; fasted, 4 h) was 96.5%, the “CETP activity relative to pre-dose” value (CETP [2]; fasted, 6 h) was 89.5% and the “CETP activity relative to pre-dose” value (CETP [2]; fasted, 8 h) was 87.8%. The “CETP activity relative to pre-dose” value (CETP [2]; fasted, 24 h) was 92.6%, the “CETP activity relative to pre-dose” value (CETP [2]; fasted, post-study) was 100.4% and the “CETP activity relative to pre-dose” value (CETP [2]; fed, 1 h) was 100.4%. The “CETP activity relative to pre-dose” value (CETP [2]; fed, 2 h) was 87.8%, the “CETP activity relative to pre-dose” value (CETP [2]; fed, 4 h) was 52.6% and the “CETP activity relative to pre-dose” value (CETP [2]; fed, 6 h) was 37.6%. For the same compound, the “CETP activity relative to pre-dose” value (CETP [2]; fed, 8 h) was 39.1%, the “CETP activity relative to pre-dose” value (CETP [2]; fed, 24 h) was 65.5% and the “CETP activity relative to pre-dose” value (CETP [2]; fed, post-study) was 102.9%. For the same compound, the “Decrease in TC/HDL-C ratio relative to baseline” value (TC, HDL-C, LDL-C; 300 mg per day) was “about 13%”, the “Increase in HDL-C levels relative to baseline” value (TC, HDL-C, LDL-C; 300 mg per day) was “about 15%” and the “Absolute change in HDL-C” value (TC, HDL-C, LDL-C; 300 mg per day) was 0.18 ± 0.15 mmol/L. For the same compound, the “Absolute change in TC” value (TC, HDL-C, LDL-C; 300 mg per day) was −0.1 ± 0.5^ mmol/L, the “Absolute change in TC/HDL-C ratio” value (TC, HDL-C, LDL-C; 300 mg per day) was −0.7 ± 0.8 and the “Absolute change in LDL-C” value (TC, HDL-C, LDL-C; 300 mg per day) was −0.2 ± 0.5^ mmol/L. The “Decrease in TC/HDL-C ratio relative to baseline” value (TC, HDL-C, LDL-C; 600 mg per day) was “about 18%”, the “Increase in HDL-C levels relative to baseline” value (TC, HDL-C, LDL-C; 600 mg per day) was “about 26%” and the “Absolute change in HDL-C” value (TC, HDL-C, LDL-C; 600 mg per day) was 0.32 ± 0.22 mmol/L. For the same compound, the “Absolute change in TC” value (TC, HDL-C, LDL-C; 600 mg per day) was 0.0 ± 0.6 mmol/L, the “Absolute change in TC/HDL-C ratio” value (TC, HDL-C, LDL-C; 600 mg per day) was −0.9 ± 0.8 and the “Absolute change in LDL-C” value (TC, HDL-C, LDL-C; 600 mg per day) was −0.2 ± 0.6^ mmol/L. The “Decrease in TC/HDL-C ratio relative to baseline” value (TC, HDL-C, LDL-C; 900 mg per day) was “about 23%”, the “Increase in HDL-C levels relative to baseline” value (TC, HDL-C, LDL-C; 900 mg per day) was “about 34%” and the “Absolute change in HDL-C” value (TC, HDL-C, LDL-C; 900 mg per day) was 0.40 ± 0.29 mmol/L. For the same compound, the “Absolute change in TC” value (TC, HDL-C, LDL-C; 900 mg per day) was 0.0 ± 0.6 mmol/L, the “Absolute change in TC/HDL-C ratio” value (TC, HDL-C, LDL-C; 900 mg per day) was −1.2 ± 0.7 and the “Absolute change in LDL-C” value (TC, HDL-C, LDL-C; 900 mg per day) was -0.3 ± 0.6 mmol/L. For the same compound, the solubility (Solubility in water) was less than 0.1 µg/mL, the “Absolute change in CETP activity” value (CETP [3]; 300 mg per day after breakfast) was −15.4 ± 11.9 % of control and the “Decrease in CETP activity relative to baseline” value (CETP [3]; 300 mg per day with food) was “about 17%”. The “Absolute change in CETP activity” value (CETP [3]; 600 mg per day after breakfast) was −29.6 ± 19.5 % of control, the “Decrease in CETP activity relative to baseline” value (CETP [3]; 600 mg per day with food) was “about 33%” and the “Absolute change in CETP activity” value (CETP [3]; 900 mg per day after breakfast) was −37.2 ± 17.6 % of control. The “Decrease in CETP activity relative to baseline” value (CETP [3]; 900 mg per day with food) was “about 39%” and the “Bioavailability (as indicated by Cmax, AUC0-tz, AUC0-∞) in Oriental (especially Japanese) humans as compared to Caucasian humans” value [4] was “greater”.
